Like-named read-outs stand apart in the source and are kept apart here.
Tests used:
[1] = system: Dark adaptation; conditions: for Night driving ability: one week later
Protocol: A patient complains of difficulty driving at night, especially in going from a well-lit to a poorly-illuminated environment. […] One cc of Vitamin A and/or one of its visual pigment derivatives in a sustained release suspension is injected retrobulbarly on both sides. […] Six months later, the retrobulbar injections are repeated.
A patient complains of difficulty driving at night, especially in going from a well-lit to a poorly-illuminated environment. […] The patient has a cataract in the right eye and cataract surgery with an intraocular lens is performed. At the time of surgery, a small pellet of concentrated vitamin A and/or one of its visual pigment derivatives is placed in the eye for sustained release.

[2] = system: Dark adaptation abnormalities; conditions: Sorsby's fundus dystrophy patients, high dose oral, for as little as 1 week; cited from earlier work
[3] = chronic high dose oral (liver damage, osteoporosis, promotion of lung cancer in smokers); cited from earlier work
[4] = cited from earlier work

With `CC1=C(/C=C/C(C)=C/C=C/C(C)=C/CO)C(C)(C)CCC1` [Vitamin A, (2E,4E,6E,8E)-3,7-dimethyl-9-(2,6,-trimethylcyclohex-1-en-1-yl)nona-2,4,6,8-tetraen-1-ol] the Night driving ability ([1]; Example 1: patient, one cc sustained release suspension retrobulbarly on both sides) was “drives without difficulty at night”, the Night driving ability ([1]; Example 2: patient, small sustained release pellet placed in the eye at cataract surgery) was “drives without difficulty at night” and the “Duration of delivery in effective concentrations to the retina” value ([1]; human, in vivo) was 0.5-3 years. For the same compound, the Dark adaptation abnormalities [2] was “rapidly normalize” and the Systemic toxicity [3] was “associated systemic toxicity”.
For `CC1=C(/C=C/C(C)=C/C=C/C(C)=C/C(=O)O)C(C)(C)CCC1` [all-trans-retinoic acid, retinoic acid], the “Photostability with BCD inclusion complex” value ([4]; beta cyclodextrin inclusion complex formation (Lin et al., 2000)) is listed as “increase the photostability”.
In the case of `CC1=C(/C=C/C(C)=C/C=C/C(C)=C/C=O)C(C)(C)CCC1` [retinal], the “Shielding from oxygen by BCD inclusion complex” value ([4]; beta cyclodextrin inclusion complex (Lerner et al., 1989)) is listed as “can shield retinal from oxygen”.

From patent US20080275133A1, “Local Administration of Retinoids to Treat Deficiencies in Dark Adaptation” (University Of Calfornia-San Francisco, priority 2004, published 2008)
